Assay results as given in patent US11078207B2, “Substituted pyrrolo[2,3-d]pyrimidines as HER2 inhibitors” (TAIHO PHARMACEUTICAL CO., LTD., priority 2019, dated 2021).

Key:
[1] = target: HER2 exon 20 insertion mutant (HER2ex20insYVMA, A775_G776insYVMA) (Homo sapiens, UniProt P04626, DUP772-775); test: Inhibitory action (in vitro) against HER2 exon 20 insertion mutant phosphorylation activity; format: biochemical; settings: 30 min pre-incubation, ATP 200 μM, 25° C. 220 minutes
Description: In order to determine conditions for a method of measuring the in vitro inhibitory activity of a compound against HER2 exon 20 insertion mutant phosphorylation activity, as in the case of HER2, ProfilerPro Peptide 22 was used as a substrate. A purified recombinant human HER2 exon 20 insertion mutant (A775_G776insYVMA) protein is shown in SEQ ID NO: 7, and was purchased from SignalChem. Upon the measurement of the inhibitory activity of the compound, first, the compound of the present invention was diluted stepwise with dimethyl sulfoxide (DMSO). Subsequently, the HER2 exon 20 insertion mutant protein and the compound of the present invention in DMSO solution (final concentration of DMSO: 5%) were added into a buffer for the kinase reaction (13.5 mM Tris (pH 7.5), 2 mM dithiothreitol, and 0.009% Tween 20), and the obtained mixture was then pre-incubated at 25° C. for 30 minutes. Thereafter, the substrate peptide (final concentration: 1 μM), manganese chloride (final concentration: 25 mM), magnesium chloride (final concentration: 20 mM), and ATP (final concentration: 200 μM) were added into the reaction mixture, and the thus obtained mixture was then incubated at 25° C. for 220 minutes, so that the kinase reaction was carried out. To the reaction solution, EDTA was added to a final concentration of 30 mM, so as to terminate the reaction. Finally, using LabChip (registered trademark) EZ Reader II (PerkinElmer), an unphosphorylated substrate peptide (S) and a phosphorylated peptide (P) were separated and detected according to microchannel capillary electrophoresis.

[2] = Body weight change in NCI-N87-Luc direct brain transplantation models; format: in vivo, nude mouse (BALB/cAJcl-nu/nu); settings: oral 25 mg/kg/day, Days 1-21, nude mice
Protocol: (§1) The test compound was orally administered to the mice once a day, every day, for 21 days from the following day of the grouping (Days 1-21).
(§2) For judgment of the presence or absence of effects, the value (Log 10) obtained by logarithmic transformation of the total flux on the judgment date was used. The test compound was administered to the mice at a dose of 25 mg/kg/day in Example 2 and Example 11, whereas it was administered at a dose of 50 mg/kg/day in Example 12.
(§3) The value obtained by logarithmic transformation (Log 10) of the total flux on Day 22 in each group was analyzed by a Dunnett test or a Student-t test.

NCI-N87-Luc = test: Antitumor effect (in vivo) on direct brain transplantation models of NCI-N87-Luc; design: species or system nude mouse (BALB/cAJcl-nu/nu); settings: Days 1-21
Description: In order to confirm the antitumor effects of a test compound on direct brain transplantation models, NCI-N87-Luc, which was obtained by introducing a luciferase gene into NCI-N87 that was a human stomach cancer tumor cell line purchased from American Type Culture Collection, was used.
The NCI-N87-Luc cells were re-suspended in PBS in a concentration of 6.25×10^7 cells/mL.
Using a mouse ear bar, a nude mouse with 6 to 7 weeks old (BALB/cAJcl-nu/nu, CLEA Japan, Inc.) was fixed in a brain stereotaxic apparatus, and the skin on the upper brain portion was disinfected with alcohol cotton and was then excised with a surgical knife.
A microdrill was used to drill a hole in the skull, and then, using a needle, a manipulator, and a syringe pump, 4 μL of the cell suspension was transplanted into the brain at a rate of 0.8 μL/min.
As a reference of the amount of brain tumor, approximately 3 weeks after the transplantation, Total Flux (Photon/sec) was measured in all of the survival cases, using IVIS (PerkinElmer, Inc., model: Lumina II). Based on the obtained results, 6 animals were assigned to each group, using the grouping program of MiSTAT (Ver. 2.00).
as §1, §2
A graph was prepared with the value obtained by logarithmic transformation (Log 10) of the average total flux of each group as a vertical axis, and with the number of days (Day) after the transplantation as a horizontal axis. The transition of the total flux over time in the drug administration period was observed. […]
as §3

Chain of HER2 exon 20 insertion mutant (HER2ex20insYVMA, A775_G776insYVMA) (P04626 with tags, fused parts or gaps DUP772-775): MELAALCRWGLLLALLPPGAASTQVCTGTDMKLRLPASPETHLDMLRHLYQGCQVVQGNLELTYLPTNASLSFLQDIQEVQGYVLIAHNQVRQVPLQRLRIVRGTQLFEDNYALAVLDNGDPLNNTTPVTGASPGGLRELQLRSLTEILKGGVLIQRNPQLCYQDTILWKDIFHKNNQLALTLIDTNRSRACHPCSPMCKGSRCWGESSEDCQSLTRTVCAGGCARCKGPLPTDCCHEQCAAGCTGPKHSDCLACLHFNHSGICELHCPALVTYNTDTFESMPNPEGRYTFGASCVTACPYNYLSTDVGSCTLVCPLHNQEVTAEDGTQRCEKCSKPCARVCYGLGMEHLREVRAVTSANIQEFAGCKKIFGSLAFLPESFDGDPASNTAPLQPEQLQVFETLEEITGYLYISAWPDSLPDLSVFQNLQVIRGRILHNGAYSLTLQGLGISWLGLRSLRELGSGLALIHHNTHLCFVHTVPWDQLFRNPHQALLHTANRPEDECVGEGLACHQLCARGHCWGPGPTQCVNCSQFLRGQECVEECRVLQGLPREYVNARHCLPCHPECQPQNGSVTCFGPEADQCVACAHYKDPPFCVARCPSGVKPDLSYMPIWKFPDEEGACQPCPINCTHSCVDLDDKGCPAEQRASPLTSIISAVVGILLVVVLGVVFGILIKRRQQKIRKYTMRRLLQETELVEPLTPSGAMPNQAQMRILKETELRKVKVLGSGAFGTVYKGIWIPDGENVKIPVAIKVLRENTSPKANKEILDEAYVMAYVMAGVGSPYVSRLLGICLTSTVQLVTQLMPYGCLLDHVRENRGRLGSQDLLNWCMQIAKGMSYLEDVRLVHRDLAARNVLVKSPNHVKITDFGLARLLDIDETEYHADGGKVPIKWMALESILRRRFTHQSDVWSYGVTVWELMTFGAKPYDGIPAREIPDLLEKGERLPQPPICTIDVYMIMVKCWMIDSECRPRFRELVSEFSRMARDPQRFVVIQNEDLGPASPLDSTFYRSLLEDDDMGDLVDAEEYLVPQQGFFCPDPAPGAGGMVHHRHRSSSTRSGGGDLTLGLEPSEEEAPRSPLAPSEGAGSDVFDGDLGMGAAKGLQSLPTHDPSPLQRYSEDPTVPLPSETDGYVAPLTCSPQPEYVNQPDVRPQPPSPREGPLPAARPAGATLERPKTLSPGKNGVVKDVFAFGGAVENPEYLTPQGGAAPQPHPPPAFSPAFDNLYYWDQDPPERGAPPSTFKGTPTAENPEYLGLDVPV

| IC50 [1] [pM] | SMILES | also measured |
| --- | --- | --- |
| 340 | C=CC(=O)N1C[C@H](n2c(C#CC)c(C(=O)N[C@H](C)c3cc(F)cc(F)c3)c3c(N)ncnc32)C[C@@H]1C [Example 1, 7-(R)-((3R,5S)-1-acryloyl-5-methylpyrrolidin-3-yl)-4-amino-N—((R)-1-(3,5-difluorophenyl)ethyl)-6-(prop-1-yn-1-yl)-7H-pyrrolo[2,3-d]pyrimidine-5-carboxamide] | – |
| < 300 | C=CC(=O)N1C[C@H](n2c(C#CC)c(C(=O)N[C@H](C)c3ccccc3)c3c(N)ncnc32)C[C@@H]1C [Example 2, 7-((3R,5S)-1-acryloyl-5-methylpyrrolidin-3-yl)-4-amino-N—((R)-1-phenylethyl)-6-(prop-1-yn-1-yl)-7H-pyrrolo[2,3-d]pyrimidine-5-carboxamide] | body weight reduction of −20% or more [2]: not observed; Log 10 of total flux on Day 22 versus control group (NCI-N87-Luc; oral 25 mg/kg/day once a day): statistically significantly lower |
| < 300 | C=CC(=O)N1C[C@H](n2c(C#CC)c(C(=O)NC(C)(C)c3ccccc3)c3c(N)ncnc32)C[C@@H]1C [Example 3, 7-((3R,5S)-1-acryloyl-5-methylpyrrolidin-3-yl)-4-amino-N-(2-phenylpropan-2-yl)-6-(prop-1-yn-1-yl)-7H-pyrrolo[2,3-d]pyrimidine-5-carboxamide] | – |
| 370 | C=CC(=O)N1C[C@H](n2c(C#CC)c(C(=O)N[C@H](CC)c3ccccc3)c3c(N)ncnc32)C[C@@H]1C [Example 4, 7-((3R,5S)-1-acryloyl-5-methylpyrrolidin-3-yl)-4-amino-N—((R)-1-phenylpropyl)-6-(prop-1-yn-1-yl)-7H-pyrrolo[2,3-d]pyrimidine-5-carboxamide] | – |
| 380 | C=CC(=O)N1C[C@H](n2c(C#CC)c(C(=O)NC(C)(C)c3ccccc3F)c3c(N)ncnc32)C[C@@H]1C [Example 5, 7-((3R,5S)-1-acryloyl-5-methylpyrrolidin-3-yl)-4-amino-N-(2-(2-fluorophenyl)propan-2-yl)-6-(prop-1-yn-1-yl)-7H-pyrrolo[2,3-d]pyrimidine-5-carboxamide] | – |
| < 300 | C=CC(=O)N1C[C@H](n2c(C#CC)c(C(=O)N[C@H](C)c3cccc(Cl)c3)c3c(N)ncnc32)C[C@@H]1C [Example 6, 7-((3R,5S)-1-acryloyl-5-methylpyrrolidin-3-yl)-4-amino-N—((R)-1-(3-chlorophenyl)ethyl)-6-(prop-1-yn-1-yl)-7H-pyrrolo[2,3-d]pyrimidine-5-carboxamide] | – |
| < 300 | C=CC(=O)N1C[C@H](n2c(C#CC)c(C(=O)N[C@@H](c3ccccc3)C(F)(F)F)c3c(N)ncnc32)C[C@@H]1C [Example 8, 7-((3R,5S)-1-acryloyl-5-methylpyrrolidin-3-yl)-4-amino-6-(prop-1-yn-1-yl)-N—((S)-2,2,2-trifluoro-1-phenylethyl)-7H-pyrrolo[2,3-d]pyrimidine-5-carboxamide] | – |
| 320 | C=CC(=O)N1C[C@H](n2c(C#CC3CC3)c(C(=O)NC(C)(C)c3ccccc3)c3c(N)ncnc32)C[C@@H]1C [Example 9, 7-((3R,5S)-1-acryloyl-5-methylpyrrolidin-3-yl)-4-amino-6-(cyclopropylethynyl)-N-(2-phenylpropan-2-yl)-7H-pyrrolo[2,3-d]pyrimidine-5-carboxamide] | – |
| < 300 | C=CC(=O)N1C[C@H](n2c(C#CC3CC3)c(C(=O)N[C@H](C)c3cccc(F)c3F)c3c(N)ncnc32)C[C@@H]1C [Example 10, 7-((3R,5S)-1-acryloyl-5-methylpyrrolidin-3-yl)-4-amino-6-(cyclopropylethynyl)-N—((R)-1-(2,3-difluorophenyl)ethyl)-7H-pyrrolo[2,3-d]pyrimidine-5-carboxamide] | – |
| < 300 | C=CC(=O)N1C[C@H](n2c(C#CC3CC3)c(C(=O)N[C@H](C)c3ccccc3)c3c(N)ncnc32)C[C@@H]1C [Example 11, 7-((3R,5S)-1-acryloyl-5-methylpyrrolidin-3-yl)-4-amino-6-(cyclopropylethynyl)-N—((R)-1-phenylethyl)-7H-pyrrolo[2,3-d]pyrimidine-5-carboxamide] | body weight reduction of −20% or more [2]: not observed; Log 10 of total flux on Day 22 versus control group (NCI-N87-Luc; oral 25 mg/kg/day once a day): statistically significantly lower |
| 390 | C=CC(=O)N1C[C@H](n2c(C#CC(C)(C)C)c(C(=O)N[C@H](C)c3ccccc3)c3c(N)ncnc32)C[C@@H]1C [Example 12, 7-((3R,5S)-1-acryloyl-5-methylpyrrolidin-3-yl)-4-amino-6-(3,3-dimethylbut-1-yn-1-yl)-N—((R)-1-phenylethyl)-7H-pyrrolo[2,3-d]pyrimidine-5-carboxamide] | Log 10 of total flux on Day 22 versus control group (NCI-N87-Luc; oral 50 mg/kg/day once a day): statistically significantly lower |
| 440 | C=CC(=O)N1C[C@H](n2c(C#CC(C)(C)OC)c(C(=O)N[C@H](C)c3ccccc3)c3c(N)ncnc32)C[C@@H]1C [Example 13, 7-((3R,5S)-1-acryloyl-5-methylpyrrolidin-3-yl)-4-amino-6-(3-methoxy-3-methylbut-1-yn-1-yl)-N—((R)-1-phenylethyl)-7H-pyrrolo[2,3-d]pyrimidine-5-carboxamide] | – |
| < 300 | C=CC(=O)N1C[C@H](n2c(C#CCC)c(C(=O)N[C@H](C)c3ccccc3)c3c(N)ncnc32)C[C@@H]1C [Example 14, 7-((3R,5S)-1-acryloyl-5-methylpyrrolidin-3-yl)-4-amino-6-(but-1-yn-1-yl)-N—((R)-1-phenylethyl)-7H-pyrrolo[2,3-d]pyrimidine-5-carboxamide] | – |
| 440 | C=CC(=O)N1C[C@H](n2c(C#CC)c(C(=O)N[C@H](C)c3ccccc3)c3c(N)ncnc32)C[C@@H]1CC [Example 16, 7-((3R,5S)-1-acryloyl-5-ethylpyrrolidin-3-yl)-4-amino-N—((R)-1-phenylethyl)-6-(prop-1-yn-1-yl)-7H-pyrrolo[2,3-d]pyrimidine-5-carboxamide] | – |
| 540 | C=CC(=O)N1C[C@H](n2c(C#CC3CC3)c(C(=O)N[C@H](C)c3ccccc3)c3c(N)ncnc32)C[C@@H]1CC [Example 17, 7-((3R,5S)-1-acryloyl-5-ethylpyrrolidin-3-yl)-4-amino-6-(cyclopropylethynyl)-N—((R)-1-phenylethyl)-7H-pyrrolo[2,3-d]pyrimidine-5-carboxamide] | – |
| < 300 | C=CC(=O)N1C[C@H](n2c(C#CC3CC3)c(C(=O)N[C@H](C)c3ccccc3)c3c(N)ncnc32)C[C@@H]1COC [Example 18, 7-((3R,5R)-1-acryloyl-5-(methoxymethyl)pyrrolidin-3-yl)-4-amino-6-(cyclopropylethynyl)-N—((R)-1-phenylethyl)-7H-pyrrolo[2,3-d]pyrimidine-5-carboxamide] | – |
